tested on: AMPK; experiment: AMPK activation assay (enzyme-linked immunosorbent assay); assay type: cell-based
Procedure, shortened: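 Compounds were tested for their capacity to activate the kinase using standard, commercially available kit reagents and procedures.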

Row | EC50 [µM] | SMILES
1 | < 0.5 | N#Cc1ccc(OC2CCN(C(=O)c3ccc(C(=O)NC4CCN(Cc5ccc(F)cc5)CC4)cn3)CC2)cc1 [Compound 320, 6-(4-(4-cyanophenoxy)piperidine-1-carbonyl)-N-(1-(4-fluorobenzyl)piperidin-4-yl)nicotinamide]
2 | < 0.5 | N#Cc1ccc(O[C@H]2CC[C@@H](NC(=O)c3ccc(C(=O)N4CCN(Cc5ccc(F)cc5)CC4)nc3)CC2)cc1 [Compound 332, N-((cis)-4-(4-cyanophenoxy)cyclohexyl)-6-(4-(4-fluorobenzyl)piperazine-1-carbonyl)nicotinamide]
3 | < 0.5 | N#Cc1ccc(CN2CCC(NC(=O)c3ccc(C(=O)N4CCN(CC5CCCCC5)CC4)cn3)CC2)cc1 [Compound 95, N-(1-(4-cyanobenzyl)piperidin-4-yl)-5-(4-(cyclohexylmethyl)piperazine-1-carbonyl)picolinamide]
4 | < 0.5 | N#Cc1ccc(CN2CCC(NC(=O)c3ccc(C(=O)N4CCC(Oc5ccc(S(F)(F)(F)(F)F)cc5)CC4)cn3)CC2)cc1 [Compound 492, N-(1-(4-cyanobenzyl)piperidin-4-yl)-5-(4-(4-(pentafluorosulfanyl)phenoxy)piperidine-1-carbonyl)picolinamide]
5 | 1 to 5 | N#Cc1ccc(CN2CCC(NC(=O)c3ccc(N4CCCC(Oc5ccc(C#N)cc5)C4)cn3)CC2)cc1 (stereo not shown) [Compound 265, N-(1-(4-cyanobenzyl)piperidin-4-yl)-5-(3-(4-cyanophenoxy)piperidin-1-yl)picolinamide]
6 | < 0.5 | COc1ccc(CN2CCC(NC(=O)c3ccc(C(=O)N4CCC(Oc5ccc(C#N)cc5)CC4)cn3)CC2)cc1 [Compound 162, 5-(4-(4-cyanophenoxy)piperidine-1-carbonyl)-N-(1-(4-methoxybenzyl)piperidin-4-yl)picolinamide]
7 | 1 to 5 | CS(=O)(=O)c1ccc(C(=O)C2CCN(C(=O)c3ccc(C(=O)NC4CCN(Cc5ccc(C#N)cc5)CC4)cn3)CC2)cc1 [Compound 221, N-(1-(4-cyanobenzyl)piperidin-4-yl)-6-(4-(4-(methylsulfonyl)benzoyl)piperidine-1-carbonyl)nicotinamide]
8 | < 0.5 | N#Cc1ccc(CN2CCC(NC(=O)c3ccc(NC4CCN(c5ccc(Cl)cc5)CC4)cn3)CC2)cc1 [Compound 139, 5-(1-(4-chlorophenyl)piperidin-4-ylamino)-N-(1-(4-cyanobenzyl)piperidin-4-yl)picolinamide]
9 | < 0.5 | COc1ccc(C(=O)C2CCN(C(=O)c3ccc(C(=O)NC4CCC(Oc5ccc(C#N)cc5)CC4)cn3)CC2)cc1 (stereo not shown) [Compound 315, N-((1s,4s)-4-(4-cyanophenoxy)cyclohexyl)-6-(4-(4-methoxybenzoyl)piperidine-1-carbonyl)nicotinamide]
10 | < 0.5 | N#Cc1ccc(CN2CCC(NC(=O)c3ccc(C(=O)N4CCC(Cc5ccccc5)CC4)cn3)CC2)cc1 [Compound 124, 5-(4-benzylpiperidine-1-carbonyl)-N-(1-(4-cyanobenzyl)piperidin-4-yl)picolinamide]
11 | < 0.5 | N#Cc1ccc(CN2CCC3(CC2)CCN(c2ccc(C(=O)N4CCN(Cc5ccc(F)cc5)CC4)cn2)C3)cc1 [Compound 31, 4-((2-(5-(4-(4-fluorobenzyl)piperazine-1-carbonyl)pyridin-2-yl)-2,8-diazaspiro[4.5]decan-8-yl)methyl)benzonitrile]
12 | < 0.5 | CCS(=O)(=O)c1ccc(C(=O)C2CCN(C(=O)c3ccc(C(=O)NC4CCN(Cc5ccc(C#N)cc5)CC4)nc3)CC2)cc1 [Compound 260, N-(1-(4-cyanobenzyl)piperidin-4-yl)-5-(4-(4-(ethylsulfonyl)benzoyl)piperidine-1-carbonyl)picolinamide]
13 | < 0.5 | COc1ccc(CN2CCC(NC(=O)c3ccc(C(=O)N4CCC(C(=O)c5ccc(N6CCCC6)cc5)CC4)nc3)CC2)cc1F [Compound 443, N-(1-(3-fluoro-4-methoxybenzyl)piperidin-4-yl)-6-(4-(4-(pyrrolidin-1-yl)benzoyl)piperidine-1-carbonyl)nicotinamide]
14 | 0.5 to 1 | O=C(NC1CCN(Cc2ccc(F)cc2)CC1)c1ccc(C(=O)N2CCC(Oc3cccc(NC(=O)C4CC4)c3)CC2)nc1 [Compound 432, 6-(4-(3-(cyclopropanecarboxamido)phenoxy)piperidine-1-carbonyl)-N-(1-(4-fluorobenzyl)piperidin-4-yl)nicotinamide]
15 | 0.5 to 1 | N#Cc1ccc(CNC(=O)c2ccc(-c3ccc(C(=O)N4CCN(Cc5ccc(F)cc5)CC4)cn3)cc2)cc1 [Compound 35, (6-(4-(4-cyanobenzylcarbamoyl)phenyl)pyridin-3-yl)(4-(4-fluorobenzyl)piperazin-1-yl)methanone]
16 | < 0.5 | N#Cc1ccc(CN2CCC(NC(=O)c3ccc(N4CCC(C(=O)c5ccc(Cl)cc5)CC4)cn3)CC2)cc1 [Compound 266, 5-(4-(4-chlorobenzoyl)piperidin-1-yl)-N-(1-(4-cyanobenzyl)piperidin-4-yl)picolinamide]
17 | < 0.5 | COc1ccc(CN2CCC(NC(=O)c3ccc(C(=O)N4CCC(C(=O)c5ccc(S(C)(=O)=O)cc5)CC4)cn3)CC2)cc1 [Compound 234, N-(1-(4-methoxybenzyl)piperidin-4-yl)-5-(4-(4-(methylsulfonyl)benzoyl)piperidine-1-carbonyl)picolinamide]

Row | EC50 [µM] | SMILES
18 | 1 to 5 | CS(=O)(=O)c1ccc(OC2CCN(C(=O)c3ccc(C(=O)NC4CCN(Cc5cccc(OC(F)(F)F)c5)CC4)cn3)CC2)cc1 [Compound 239, 6-(4-(4-(methylsulfonyl)phenoxy)piperidine-1-carbonyl)-N-(1-(3-(trifluoromethoxy)benzyl)piperidin-4-yl)nicotinamide]
19 | < 0.5 | N#Cc1ccc(CN2CCC(NC(=O)c3cnc(C(=O)N4CCC(Oc5ccc(C(F)(F)F)cc5)CC4)cn3)CC2)cc1 [Compound 212, N-(1-(4-cyanobenzyl)piperidin-4-yl)-5-(4-(4-(trifluoromethyl)phenoxy)piperidine-1-carbonyl)pyrazine-2-carboxamide]
20 | < 0.5 | COc1ccc(CN2CCC(NC(=O)c3ccc(C(=O)N4CCC(Oc5ccc(C#N)cc5)CC4)nc3)CC2)cc1 [Compound 319, 6-(4-(4-cyanophenoxy)piperidine-1-carbonyl)-N-(1-(4-methoxybenzyl)piperidin-4-yl) nicotinamide]
21 | < 0.5 | N#Cc1ccc(CN2CCC(NC(=O)c3ccc(C(=O)N4CC[C@H](Oc5ccc(C#N)cc5)[C@@H](F)C4)cn3)CC2)cc1 (relative stereo) [Compound 279, N-(1-(4-cyanobenzyl)piperidin-4-yl)-5-((trans)-4-(4-cyanophenoxy)-3-fluoropiperidine-1-carbonyl)picolinamide]
22 | < 0.5 | O=C(NC1CCN(Cc2cc(F)cc(F)c2)CC1)c1ccc(C(=O)N2CCC(C(=O)c3ccc(F)c(F)c3)CC2)cn1 [Compound 298, 5-(4-(3,4-difluorobenzoyl)piperidine-1-carbonyl)-N-(1-(3,5-difluorobenzyl)piperidin-4-yl)picolinamide]
23 | < 0.5 | N#Cc1cccc(Oc2ccc(NC(=O)c3ccc(C(=O)N4CCN(Cc5ccc(F)cc5)CC4)cn3)cc2)c1 [Compound 56, N-(4-(3-cyanophenoxy)phenyl)-5-(4-(4-fluorobenzyl)piperazine-1-carbonyl)picolinamide]
24 | 1 to 5 | O=C(NC1CCN(CC2CCCCC2)CC1)c1ccc(C(=O)N2CCN(Cc3ccc(F)cc3)CC2)cn1 [Compound 13, N-(1-(cyclohexylmethyl)piperidin-4-yl)-5-(4-(4-fluorobenzyl)piperazine-1-carbonyl)picolinamide]
25 | < 0.5 | O=C(Nc1ccc(Oc2cccc(F)c2)cc1)c1ccc(C(=O)N2CCN(Cc3ccc(F)cc3)CC2)cn1 [Compound 55, 5-(4-(4-fluorobenzyl)piperazine-1-carbonyl)-N-(4-(3-fluorophenoxy)phenyl)picolinamide]
26 | 1 to 5 | O=C(c1ccc(N2CCC(Oc3ccc(C(F)(F)F)cc3)CC2)nc1)N1CCN(Cc2ccc(F)cc2)CC1 [Compound 187, (4-(4-fluorobenzyl)piperazin-1-yl)(6-(4-(4-(trifluoromethyl)phenoxy)piperidin-1-yl)pyridin-3-yl)methanone]
27 | < 0.5 | COc1ccc(C(=O)C2CCN(C(=O)c3ccc(C(=O)Nc4ccc(Oc5ccc(C#N)cc5)nc4C)cn3)CC2)cc1 [Compound 478, N-(6-(4-cyanophenoxy)-2-methylpyridin-3-yl)-6-(4-(4-methoxybenzoyl)piperidine-1-carbonyl)nicotinamide]
28 | < 0.5 | CN1CCN(c2ccc(C(=O)C3CCN(C(=O)c4ccc(C(=O)Nc5ccc(Oc6ccc(F)cc6)nc5)cn4)CC3)cc2)CC1 [Compound 245, N-(6-(4-fluorophenoxy)pyridin-3-yl)-6-(4-(4-(4-methylpiperazin-1-yl)benzoyl)piperidine-1-carbonyl)nicotinamide]
29 | < 0.5 | O=C(Nc1ccc(Oc2ccc(F)cc2)nc1)c1cnc(C(=O)N2CCC(C(=O)c3ccc(F)cc3F)CC2)cn1 [Compound 206, 5-(4-(2,4-difluorobenzoyl)piperidine-1-carbonyl)-N-(6-(4-fluorophenoxy)pyridin-3-yl)pyrazine-2-carboxamide]
30 | < 0.5 | N#Cc1ccc(CN2CC[C@@H](NC(=O)c3ccc(C(=O)N4CCN(Cc5ccc(F)cc5)CC4)cn3)[C@@H](F)C2)cc1 [Compound 100]
31 | < 0.5 | N#Cc1ccc(CN2CCC(NC(=O)c3ccc(C(=O)N4CC(Oc5ccc(C#N)cc5)C4)cn3)CC2)cc1 [Compound 209, N-(1-(4-cyanobenzyl)piperidin-4-yl)-5-(3-(4-cyanophenoxy)azetidine-1-carbonyl)picolinamide]
32 | < 0.5 | O=C(Nc1cccc(Oc2ccccc2)c1)c1ccc(C(=O)N2CCN(Cc3ccc(F)cc3)CC2)cn1 [Compound 21, 5-(4-(4-fluorobenzyl)piperazine-1-carbonyl)-N-(3-phenoxyphenyl)picolinamide]
33 | 1 to 5 | CC(=O)Nc1cccc(OC2CCN(C(=O)c3ccc(C(=O)Nc4ccc(Oc5ccc(F)cc5)nc4)cn3)CC2)c1 [Compound 414, 6-(4-(3-acetamidophenoxy)piperidine-1-carbonyl)-N-(6-(4-fluorophenoxy)pyridin-3-yl)nicotinamide]
34 | < 0.5 | CC(=O)c1ccc(OC2CCN(C(=O)c3ccc(C(=O)NC4CCN(Cc5ccc(F)cc5)CC4)cn3)CC2)cc1 [Compound 391, 6-(4-(4-acetylphenoxy)piperidine-1-carbonyl)-N-(1-(4-fluorobenzyl)piperidin-4-yl)nicotinamide]
